Where two headings read alike, the source gives them in different places.
Experiments:
Assay type in all cases: cell-based, HIV-1
[1] = test system: Recombinant wild type HIV strain recIIIB; test: Antiviral MT4/MTT assay with reference virus recIIIB; conditions: read-out: Anti-HIV-1 activity IC50 (μM) recIIIB ref (2)
[2] = test system: recombinant virus from patient viral RNA (Example 5, 3TC resistant HIV strains); test: Recombinant virus assay (MT4/MTT), patient of Example 5 (AZT, then AZT+3TC therapy); conditions: for IC50: Human immunodeficiency virus 1, Table 1, Example 5 patient virus
Method: (§1) RNA was isolated from 100 μl of plasma according to the method described by Boom, R. et al. (1990, supra), and was reverse transcribed with the GeneAmp reverse transcriptase kit (Perkin Elmer) as described by the manufacturer and using an HIV-1 specific downstream primer (OUT3: 5′-CATTGCTCTCCAATTACTGTGATATTTCTCATC-3′; SEQ ID NO: 1). PCR on reverse transcribed RNA was performed with inner and outer primers as described by Kellam, P. and Larder, B. A. (1994, supra). After chloroform extraction and centrifugation on Centricon 100 columns or centrifugation on anion-exchange spin columns (Quiagen), the isolated PCR product was ready for use in the transfection reactions.
(§2) MT4 cells were subcultured at a density of 250,000 cells/ml before transfection (exponential growth phase). Cells were pelleted and resuspended in phosphate buffered saline (PBS) at a concentration of […]. A 0.8 ml portion (2.5 10E6 cells/ml) was used for each transfection. Transfection was performed with the Bio-Rad Gene pulser making use of 0.4 cm electrode cuvettes. Cells were electroporated in the presence of […] of linearised pHIVΔRT plasmid and approximately 5 μg of RT PCR product at 250SF and 300 V, followed by a 30-min incubation at room temperature. Subsequently, 10 ml of fresh culture medium was added to the cell suspension and incubation was performed at 37° C. in a humidified atmosphere of 5% CO2.
(§3) During 7 to 10 days following the transfection, cells were monitored for the appearance of cytopathogenic effect (CPE). In the absence thereof, cells were subcultured in different flasks. Subsequently, culture supernatants of transfected cells were used to create a stock of recombinant virus and stored in 1.5 ml aliquots at −70° C.
(§4) After titration of the new viruses, the stocks were used for antiviral experiments in the presence of serial dilutions of different HIV inhibitors. Titres of the harvested supematants were determined by limited serial dilution titration of virus in MT4 cells.
(§5) Viruses with a useful titre were used in antiviral experiments. For this purpose, 96-well microtitre plates were filled with 100μl of complete culture medium. Subsequently, stock solutions of compounds were added in 25 μl volumes to series of duplicate wells. HIV- and mock-infected cell samples were included for each drug (or drug combination). Exponentially growing MT4 cells were then transferred to the microtitre plates at a density of 150,000 cells/ml. The cell cultures were then incubated at 37° C. in a humidified atmosphere of 5% CO2. Five days after infection, the viability of the mock- and HIV-infected cells was examined spectrophotometrically by the M1T method (Pauwels, R. et al. J. Virol. Meth. (1988), 20: 309-321) as described in Section 6 below.
(§6) To each well of the microtiter plates, 20 μl of a solution of MTT (7.5 mg/ml in PBS) was added. The plates were further incubated at 37° C. for 1 h. Then, 150 μl of medium was removed without disturbing the MT4 cell clusters containing the formazan crystals. Solubilization of the formazan crystals was achieved by adding 100 μl 5% Triton X-100 in acidified isopropanol (5 ml concentrated HCl per liter solvent). Complete dissolution of the formazan crystals was obtained after the plates had been placed on a plate shaker for 10 min. Finally the absorbances were read at two wavelengths (540 and 690 nm). From these optical density (OD) data, 50% inhibitory (IC50) and 50% cytotoxic (CC50) concentrations were derived.
An HIV infected patient who received AZT from December 1989 until an undocumented later date, and switched to a combined chemotherapy of AZT+3TC (1:1) from February 1994 until October 1995 donated plasma whose susceptibility to a number of RT inhibitors was determined according to the above described protocol of Example 1. Recombinant wild type HIV strain recIIIB was used in said protocol as a reference HIV virus.

[3] = test system: recombinant virus from patient viral RNA (Example 6, drug-naive patient); test: Recombinant virus assay (MT4/MTT), drug-naive patient of Example 6; conditions: for IC50: Human immunodeficiency virus 1, Table 2, Example 6 patient virus
Method: as §1, §2, §3, §4, §5, §6
A drug-naive HIV infected patient donated plasma whose susceptibility to a number of RT inhibitors was determined according to the above described protocol of Example 1. Recombinant wild type HIV strain recIIIB was used in said protocol as a reference HIV virus.

[4] = test system: recombinant virus from patient viral RNA (Example 7, drug-naive patient); test: Recombinant virus assay (MT4/MTT), drug-naive patient of Example 7; conditions: for IC50: Human immunodeficiency virus 1, Table 3, Example 7 patient virus
Method: as §1, §2, §3, §4, §5, §6
A drug-naive HIV-infected patient donated plasma whose susceptibility to a number of RT inhibitors was determined according to the protocol set out in Example 1. Recombinant wild type HIV strain recIIIB was used as a reference HIV virus.

[5] = test system: recombinant virus from patient viral RNA (Example 8); test: Recombinant virus assay (MT4/MTT), patient of Example 8 (therapy history AZT, 3TC and loviride); conditions: for IC50: Human immunodeficiency virus 1, Table 4, Example 8 patient virus
Method: as §1, §2, §3, §4, §5, §6
(§7) An HIV-infected patient with a therapy history including AZT, 3TC and loviride donated plasma whose susceptibility to a number of RT inhibitors was determined according to the protocol set out in Example 1. Recombinant wild type HIV strain recIIIB was used as a reference HIV virus.

[6] = test system: recombinant virus from patient viral RNA (Example 9); test: Recombinant virus assay (MT4/MTT), patient of Example 9 (multiple nucleoside analogue RT-inhibitors); conditions: for IC50: Human immunodeficiency virus 1, Table 5, Example 9 patient virus
Method: as §1, §2, §3, §4, §5, §6
as §7, with “multiple nucleoside analogue RT-inhibitors” for “AZT, 3TC and loviride”

[7] = MT4 cells, read-out: Anti-HIV-1 activity IC50 (μM) Exp. 1
[8] = MT4 cells, read-out: Anti-HIV-1 activity IC50 (μM) Exp. 2
[9] = mean of Exp. 1 and 2, read-out: Anti-HIV-1 activity IC50 (μM) Mean (1)
[10] = mean, read-out: Anti-HIV-1 activity IC50 (μM) Mean (1)

SMILES: O=c1[nH]cnc2c1ncn2[C@H]1CC[C@@H](CO)O1 [ddI, didanosinen]
- IC50 ([1]; Human immunodeficiency virus 1, Table 1, reference run of Example 5): 2.83 µM
- IC50 ([1]; Human immunodeficiency virus 1, Table 2, reference run of Example 6): 8.58 µM
- IC50 ([1]; Human immunodeficiency virus 1, Table 3, reference run of Example 7): 0.648 µM
- IC50 ([1]; Human immunodeficiency virus 1, Table 4, reference run of Example 8): 1.59 µM
- IC50 ([1]; Human immunodeficiency virus 1, Table 5, reference run of Example 9): 4.76 µM
- IC50 [2, 7]: 2 µM
- IC50 [2, 8]: 0.8 µM
- IC50 [2, 9]: 1.4 µM
- ratio (1)/(2) ([2]; Table 1, patient mean IC50 / recIIIB IC50, Example 5): 0.5
- IC50 [3, 7]: 3.07 µM
- IC50 [3, 8]: 4.47 µM
- IC50 [3, 9]: 3.77 µM
- ratio (1)/(2) ([3]; Table 2, patient mean IC50 / recIIIB IC50, Example 6): 0.4
- IC50 [4, 7]: 0.475 µM
- IC50 [4, 8]: 0.429 µM
- IC50 [4, 10]: 0.452 µM
- ratio (1)/(2) ([4]; Table 3, patient mean IC50 / recIIIB IC50, Example 7): 0.7
- IC50 [5, 7]: 26.9 µM
- IC50 [5, 8]: 15.4 µM
- IC50 [5, 10]: 21.1 µM
- ratio (1)/(2) ([5]; Table 4, patient mean IC50 / recIIIB IC50, Example 8): 13
- IC50 [6, 7]: > 100 µM
- IC50 [6, 8]: > 100 µM
- IC50 [6, 10]: > 100 µM
- ratio (1)/(2) ([6]; Table 5, patient mean IC50 / recIIIB IC50, Example 9): >21

From US6528251B2, “Method of managing the chemotherapy of patients who are HIV positive based on the phenotypic drug sensitivity of human HIV strains” (Virco N.V., priority 1996, dated 2003)
